# Reference: patent US9150571B2, “Crystalline forms of fused amino pyridines as HSP90 inhibitors” (Debiopharm International SA, priority 2011, dated 2015)
# Legend:
# Assay type in all cases: physicochemical
# [1] = Solubility, EP (European Pharmacopoeia) aliquot addition method; conditions: 25° C., EP method (kinetic solubility)
# Method: All samples to be tested were passed through number 180 and number 125 sieves to ensure that they were finely powdered prior to testing, i.e. not less than 95% of sample mass passed through a […] sieve and not more than 40% passed through a 38 μm sieve.
# The vial containing the test material and chosen solvent was shaken on a vortex mixer for 1 minute. The vial was placed in a water bath maintained at 25° C.±0.5° C. for 15 minutes. If particles were still remaining, the vial was shaken again for 1 minute using the vortex mixer and returned to the water bath for a further 15 minutes.
# Approximately 100 mg of the test material was weighed into a vial and 0.1 mL of the chosen solvent was added. This was treated as described in the procedure above. […] After each addition of solvent the contents of the vial were treated as described in the dissolving procedure. […] After the dissolving procedure was complete, the solubility of the material was visually determined. […] Results obtained were reported.
# The solubility of Compound 1 Form I was determined by two different methods. The EP (European Pharmacopoeia) method is an aliquot addition method which gives a rough assessment of kinetic solubility. The equilibrium method requires the suspension of solid for an extended period in the dissolving medium. […]
# [2] = Equilibrium solubility in buffer, HPLC
# Method: Approximately 25 mg of test substance was weighed into glass test tubes. The relevant volume of buffer solution (10 mL) was added to each vessel. The tests were performed in duplicate. The vessels were lightly sealed and agitated at 25°C. in a shaking thermostatted water bath protected from light. Sampling was performed after 24 hours and thereafter not less than 20 hours between sample time points. Sampling was performed by filtration of a portion of the test slurry through a 0.2 μm filter and dilution in appropriate media for HPLC analysis.
# Equilibrium solubility was determined by HPLC by using:
# [formula] where the Standard Purity was taken as 95%.
# (§1) Buffer pH 7.0 samples were prepared by removing approximately 1 mL of the solution from the appropriate glass test tube and filtering into a HPLC vial using a PTFE 0.2 μm syringe filter. The concentration of the Compound 1 in the filtrate was determined by comparison with data of the standard sample (about 0.25 mg/g).
# as §1, with “5.0” for “7.0”, “The filtered solution was diluted by a factor of 5 and approximately 1 mL of this solution was added into a HPLC vial for analysis. The” for “The”
# At the end of the solubility study, the solids were isolated from the experimental slurries, filtered, dried and analyzed by XRPD in order to determine the physical form.
# The solubility of Compound 1 Form I was determined by two different methods. The EP (European Pharmacopoeia) method is an aliquot addition method which gives a rough assessment of kinetic solubility. The equilibrium method requires the suspension of solid for an extended period in the dissolving medium. […] The EP method indicated solubility of Compound 1 Form I to be insoluble in water and be soluble in ethanol at 33-100 mg/ml.
# The concentration of the samples was assessed by HPLC.
# [3] = Intrinsic dissolution rate (IDR); conditions: pH 5.0 USP buffer, 37° C., 50 RPM; Form I from one non capped pellet
# Method: For intrinsic dissolution studies (IDR) an isocratic HPLC method with a shorter run time (10 mins) was used due to the high number of sample analyses required (Table 2).
# Distek 8 mm intrinsic dissolution apparatus was used for the study. The three fixed screws on the surface plate were inserted through the three holes on the die and fastened with the supplied washers and nuts. 100 mg of test material was placed in the die cavity. The punch was inserted into the cavity and compressed, with the aid of a bench top hydraulic press for 30 sec at 1 ton pressure. The surface plate was disconnected from the die to expose a compact pellet of 0.5 cm^2 surface area. The pellets were checked for any breaks and cracks on the surface. Only the pellets with flat even surface with no irregularities were used for the study. The Viton gasket was placed around the threaded shoulder of the die and a polypropylene cap was screwed on to the threads. The assembly was immersed, pellet side up, into the bottom of the dissolution vessel (flat bottom) containing dissolution medium at 37° C. The media is degassed under helium purge for 15 min prior to use.
# • Dissolution media: pH 5.0 USP buffer • Vessel volume: 900 mL • Rotation speed: 50 RPM • Temperature: 37° C.±0.5° C. • Sampling time points: 30, 60, 90, 120 and 150 mins • Sample size: 1 mL • Sample analysis: By HPLC (conditions in Table 2 above)
# Three samples of Form I, II, III and trihydrate were checked for IDR in USP pH 5.0 buffer. The samples were checked for any changes in their surface after dropping into the dissolution medium. […] The particles relax on contact with water during dissolution, causing capping of the surface. So IDR was calculated for Form I based on drug release from one non capped pellet. […] The samples were collected manually through a cannula fitted with 10 μm inline filters. The samples collected from dissolution run were analyzed by HPLC.
# The average of all three runs was used to plot and calculate the IDR of samples, with the exception of Form I. The average dissolution profile for each Form is shown in FIG. 12.
# After the dissolution test, the remaining portion of the pressed discs were dried in air and examined by XRPD.
# [4] = Dynamic vapour sorption (DVS) hygroscopicity
# Method: Dynamic Vapour Sorption (DVS) was performed using a Hiden Analytical Instruments IGAsorp Vapour Sorption Balance. Approximately 15 mg of sample was placed into a wire-mesh vapour sorption balance pan, loaded into the IGAsorp vapour sorption balance and held at 25° C.±0.1° C. The sample was subjected to a step profile from 0 to 90% RH at 10% increments, followed by desorption from […] to 0% RH at 10% increments. The equilibrium criterion was set to 99.5% step completion within a minimum of 60 minutes and a maximum of 10 hours for each increment. The weight change during the sorption cycle was monitored, allowing for the hygroscopic nature of the sample to be determined. The data collection interval was in seconds.
# DVS analysis was used to investigate the hygroscopicity of Compound 1 Form I (FIG. 11). […] The overall weight gain up to 95% RH was 0.06% and weight gained up to 80% RH only 0.08%.
# After completion of the cycle, the sample was removed from the instrument and no weight change was observed.
# [5] = Interconversion experiments in ethyl acetate suspension (thermodynamic stability of forms), XRPD; conditions: for temperature range in which the form is the most stable polymorph (Form I/II transition): from interconversion experiments at 5, 10, 15, 21 & 60° C.
# Method: Interconversion experiments were carried out using Forms I, II and III at 5° C., 10° C., 15° C., 21° C. and 60° C. in ethyl acetate. Suspensions of approximately equivalent amounts (about 75 mg) of each form in ethyl acetate (1.2 mL) were prepared and agitated at different temperatures. The slurries were stirred and sampled periodically (200 μL aliquot) after 30 mins and over the period of 10 days or until when near complete or complete conversion had occurred. The sampled aliquot was filtered, air dried and analyzed by XRPD.
# In solvent mediated conversions, seeds of all Forms are present and there is no activation energy barrier to interconversion. This technique is used to identify the ‘true’ transition temperature and the thermodynamic relationship between the Forms. In order to determine the order of stability between each individual form interconversion experiments were performed using suspensions of pairs of each form in ethyl acetate at 5, 10 and 15° C. and suspensions of all Forms together at 21° C. and 60° C. The stirred suspensions of Forms I, II and III were sampled after 0.5 hr (t0), after 1, 2 and 3 days (t1-3) and 6 and 10 days if required.
# [6] = Critical water activity for trihydrate formation in acetone/water; conditions: 21° C.
# Method: Experiments to determine the critical water activity level with respect to trihydrate formation were performed in acetone/water. Different % v/v ratios of water in acetone were used for suspensions at 21° C. […] Using the Wilson VLE model, this equates to 0.38-0.49 or 0.35-0.44 using the UNIFAC model. This provides useful information for process chemists and formulators in later development.
smiles,measurement,setting,value
CN(C)c1cc2c(cc1Sc1nc3c(N)nccc3n1CCNCC(C)(C)C)OCO2 [Compound 1 Form I],solubility at 15 min,"[1]; organic solvent or mixture, ethanol",33 to 100 mg/mL
same,solubility in water (EP method),[1]; water,insoluble
same,MEAN SOLUBILITY pH 5.1,"[2]; day 1, buffer pH 5.1, 25°C",1.101 MG/G
same,MEAN SOLUBILITY pH 7.0,"[2]; day 1, buffer pH 7.0, 25°C",0.074 MG/G
same,MEAN SOLUBILITY pH 5.1,"[2]; day 2, buffer pH 5.1, 25°C",0.735 MG/G
same,MEAN SOLUBILITY pH 7.0,"[2]; day 2, buffer pH 7.0, 25°C",0.043 MG/G
same,MEAN SOLUBILITY pH 5.1,"[2]; day 3, buffer pH 5.1, 25°C",0.587 MG/G
same,MEAN SOLUBILITY pH 7.0,"[2]; day 3, buffer pH 7.0, 25°C",0.031 MG/G
same,MEAN SOLUBILITY pH 5.1,"[2]; day 4, buffer pH 5.1, 25°C",0.507 MG/G
same,MEAN SOLUBILITY pH 7.0,"[2]; day 4, buffer pH 7.0, 25°C",0.025 MG/G
same,IDR,[3],0.101 mg cm^−2 min^−1
same,weight gained up to 80% RH,"[4]; DVS, 25° C., up to 80% RH",0.08%
same,overall weight gain up to 95% RH,"[4]; DVS, 25° C., up to 95% RH",0.06%
same,hygroscopicity classification (European Pharmacopoeia),[4]; weight increase at 80% RH (25° C.),non-hygroscopic
same,thermodynamically most stable form,"[5]; 21° C., ethyl acetate suspension of Forms I, II and III",thermodynamically most stable form
same,thermodynamically most stable form,"[5]; 60° C., ethyl acetate suspension of Forms I, II and III",thermodynamically most stable form
same,temperature range in which the form is the most stable polymorph (Form I/II transition),[5],above 18±2 °C
CN(C)c1cc2c(cc1Sc1nc3c(N)nccc3n1CCNCC(C)(C)C)OCO2 [Form III],IDR,[3],0.266 mg cm^−2 min^−1
CN(C)c1cc2c(cc1Sc1nc3c(N)nccc3n1CCNCC(C)(C)C)OCO2 [Form II],IDR,[3],0.098 mg cm^−2 min^−1
same,thermodynamically most stable form,"[5]; 5° C., ethyl acetate suspension of pairs of forms",thermodynamically most stable form
same,thermodynamically most stable form,"[5]; 10° C., ethyl acetate suspension of pairs of forms",thermodynamically most stable form
same,thermodynamically most stable form,"[5]; 15° C., ethyl acetate suspension of pairs of forms",thermodynamically most stable form
same,temperature range in which the form is the most stable polymorph (Form I/II transition),[5],lower than 18±2 °C
CN(C)c1cc2c(cc1Sc1nc3c(N)nccc3n1CCNCC(C)(C)C)OCO2 [Trihydrate],IDR,[3],0.184 mg cm^−2 min^−1
same,"critical water activity, UNIFAC model",[6]; UNIFAC model,0.35-0.44
same,"critical water activity, Wilson VLE model",[6]; Wilson VLE model,0.38-0.49
